In patent US8314058B2, “Uptake of macromolecules” (Axcess Limited, priority 2003, dated 2012):

System: juvenile pigs
Assay: In vivo efficacy of tablets containing chenodeoxycholate/propyl gallate/calcitonin mixture in juvenile pigs (blood calcium)
Settings: 400 iu s.c., six hour period
Method: Blood calcium levels are measured at intervals over a six hour period and mean change in AUC of plasma calculated is calculated in h·mmol/l.

salmon calcitonin
AUC (mean change in AUC of plasma calcium): -1.79 mmol·h/L
